According to patent US20260124226A1 (priority 2023, published 2026):
“And” between values parts separate entries of the source, which are not always exact repeats. Identical values can stand only once. Like-named read-outs stand apart in the source and are kept apart here.

Assays:
VEEV = assay: microbe, parasite or virus in culture; format: cell-based, Venezuelan equine encephalitis virus; conditions: Venezuelan equine encephalitis virus
EEEV = assay: microbe, parasite or virus in culture; format: cell-based, Eastern equine encephalitis virus
WEEV = assay: microbe, parasite or virus in culture; format: cell-based, Western equine encephalitis virus; conditions: Vero76 cells
CHIKV = assay: microbe, parasite or virus in culture; format: cell-based, Chikungunya virus
La Crosse virus = assay: microbe, parasite or virus in culture; format: cell-based
Punta Toro virus = assay: microbe, parasite or virus in culture; format: cell-based
[1] = test system: Severe fever thrombocytopenia syndrome virus; assay: organism not typed; format: cell-based; conditions: Vero
Lassa fever virus = assay: organism not typed; format: cell-based; conditions: Vero
Junin virus = assay: microbe, parasite or virus in culture; format: cell-based; conditions: for EC50: Junin virus strain Candid #1, Vero cells
[2] = test system: Lymphocytic choriomeningitis virus; assay: microbe, parasite or virus in culture; format: cell-based; conditions: Mammarenavirus choriomeningitidis, Vero
Pichinde virus = assay: microbe, parasite or virus in culture; format: cell-based; conditions: Vero
Tacaribe virus = assay: microbe, parasite or virus in culture; format: cell-based; conditions: for EC50: Tacaribe virus strain TRVL 11573, Vero cells
Influenza A H1N1 = assay: microbe, parasite or virus in culture; format: cell-based, influenza A virus; conditions: Influenza A virus, H1N1, MDCK
Flu A H5N1 (Low Path) = assay: microbe, parasite or virus in culture; format: cell-based, influenza A virus; conditions: Influenza A virus, H5N1, MDCK
Parainfluenza virus 3 = assay: organism not typed; format: cell-based
EBOV = assay: microbe, parasite or virus in culture; format: cell-based, Ebola virus; conditions: Zaire ebolavirus, Vero
Marburg virus = assay: microbe, parasite or virus in culture; format: cell-based; conditions: Filoviridae, Vero
MERS = assay: microbe, parasite or virus in culture; format: cell-based, MERS coronavirus; conditions: Middle East respiratory syndrome-related coronavirus, Vero 76
DENV2 = assay: microbe, parasite or virus in culture; format: cell-based, Dengue virus 2; conditions: Dengue virus, DENV2, Huh-7
Poliovirus = assay: microbe, parasite or virus in culture; format: cell-based; conditions: Vero 76 cells
Enterovirus-68 = assay: microbe, parasite or virus in culture; format: cell-based, EV-D68
A-204 = assay: EIDD-2749 cytotoxicity; format: cell-based; conditions: A-204 cells
A549 = assay: EIDD-2749 cytotoxicity; format: cell-based; conditions: A549 cells
BxPc3 = assay: EIDD-2749 cytotoxicity; format: cell-based; conditions: BxPc3 cells
H9c-2 = assay: EIDD-2749 cytotoxicity; format: cell-based; conditions: H9c-2 cells
IEC-6 = assay: EIDD-2749 cytotoxicity; format: cell-based; conditions: IEC-6 cells
Vero = assay: EIDD-2749 cytotoxicity; format: cell-based, African green monkey; conditions: Vero cells
Vero cells = conditions: African green monkey
Vero E6 cells = conditions: African green monkey
MDCK cells = conditions: dog
RD cells = conditions: human
Huh-7 cells = conditions: human
[3] = CD-1, mouse, microsomes
[4] = male, Sprague-Dawley, rat, microsomes, pH 7.4
[5] = female, ICR (CD-1), mouse, in vivo
Plasma stability [6] = conditions: mouse plasma, drug 1.00 μM
Plasma stability [7] = conditions: rat plasma, drug 1.00 μM
[8] = Mouse PK (plasma, IP and oral); conditions: female, ICR (CD-1)
[9] = Mammarenavirus tacaribeense, Vero

Compound: O=c1ccn([C@@H]2O[C@](F)(CO)[C@@H](O)[C@H]2O)c(=O)[nH]1 [EIDD-2749, 4′-fluorouridine]
- EC90 (VEEV; Vero 76): 213 µM
- EC50 (VEEV; Vero 76, VEEV strain TC-83, Vero 76 cells): 7.6 µM
- EC50 (EEEV; EEEV strain FL93-939, Vero76 cells): > 380 µM
- EC50 (EEEV; Eastern equine encephalitis virus, Vero 76, EEEV strain FL93-939, Vero76 cells): 380 µM
- EC50 (WEEV; WEEV strain California): 11.8 µM
- EC50 (WEEV; Western equine encephalitis virus, Vero 76, WEEV strain California): 9.88 µM
- EC50 (CHIKV): 2.05 µM and 3.42 µM
- EC50 (CHIKV; Chikungunya virus, Vero 76): 1.98 µM
- EC90 (CHIKV; Chikungunya virus, Vero 76): 9.12 µM
- EC50 (La Crosse virus): < 0.38 µM
- EC50 (Punta Toro virus): 91.2 µM
- EC50 (Punta Toro virus; Punta Toro virus, Vero 76): 72.2 µM
- EC90 [1]: > 380 µM
- EC50 (Lassa fever virus): 0.38 µM
- EC90 (Lassa fever virus): 9 µM
- EC50 (Junin virus): 1.29 µM
- EC90 (Junin virus; Mammarenavirus juninense, Vero): 0.38 µM
- EC50 (Junin virus; Mammarenavirus juninense, Vero): 1.86 µM
- EC90 [2]: 7.22 µM
- EC90 (Pichinde virus): 0.19 µM
- EC90 (Tacaribe virus; [9]): 0.87 µM
- EC50 (Tacaribe virus; [9]): < 0.38 µM
- EC50 (Tacaribe virus): 0.34 µM
- EC50 (Influenza A H1N1): < 0.38 µM
- EC50 (Flu A H5N1 (Low Path)): < 0.38 µM
- EC50 (Parainfluenza virus 3): 60.8 µM
- EC50 (Parainfluenza virus 3; MA104): 98.8 µM
- EC50 (EBOV): 1.52 µM
- EC90 (EBOV): 22 µM
- EC50 (Marburg virus): > 380 µM
- EC50 (MERS): > 380 µM
- EC50 (DENV2): > 380 µM
- EC50 (Poliovirus; Enterovirus C, Vero 76, Poliovirus strain Mahoney): 12.2 µM
- EC50 (Poliovirus; Poliovirus strain Mahoney): 11.8 µM
- EC50 (Enterovirus-68): 11.8 µM
- EC50 (Enterovirus-68; Enterovirus D, RD): 13.7 µM
- CC50 (A-204): > 400 µM
- CC50 (A549): > 400 µM
- CC50 (BxPc3): > 400 µM
- CC50 (H9c-2): > 400 µM
- CC50 (IEC-6): 372 µM
- CC50 (Vero): > 400 µM
- CC50 (Vero cells): > 380 µM
- CC50 (Vero E6 cells): > 380 µM
- CC50 (MDCK cells): > 380 µM
- CC50 (RD cells): > 380 µM
- CC50 (Huh-7 cells): > 380 µM
- half-life [3]: 0.45 h
- half-life [4]: 0.417 h
- AUC-INF ([5]; ip, 10 mg/kg): 19.6 µM·h
- Cmax ([5]; ip, 10 mg/kg): 7.7 ± 2.3 µM
- t1/2 ([5]; ip, 10 mg/kg): 6.3 h
- AUC-INF ([5]; po, 50 mg/kg): 232.3 µM·h
- Bioavailability ([5]; po, 50 mg/kg): 236%
- Cmax ([5]; po, 50 mg/kg): 35.2 ± 9.7 µM
- t1/2 ([5]; po, 50 mg/kg): 8.3 h
- AUC-INF ([5]; po, 150 mg/kg): 392.3 µM·h
- Bioavailability ([5]; po, 150 mg/kg): 133%
- Cmax ([5]; po, 150 mg/kg): 43.6 ± 2.8 µM
- t1/2 ([5]; po, 150 mg/kg): 8.5 h
- AUC-INF ([5]; po, 500 mg/kg): 755.2 µM·h
- Bioavailability ([5]; po, 500 mg/kg): 77.0%
- Cmax ([5]; po, 500 mg/kg): 76 ± 15.3 µM
- t1/2 ([5]; po, 500 mg/kg): 12.9 h
- half-life (Plasma stability [6]): 0.617 h
- half-life (Plasma stability [7]): 0.367 h
- concentration at 24 h ([8]; ip, 10 mg/kg): 0.75 ± 0.1 µM
- concentration at 24 h ([8]; po, 50 mg/kg): 2.8 ± 1.1 µM
- concentration at 24 h ([8]; po, 150 mg/kg): 3.4 ± 1.3 µM
- concentration at 24 h ([8]; po, 500 mg/kg): 9.8 ± 4.2 µM
